According to paper PMC7447632, “Highly functionalized β-lactams and 2-ketopiperazines as TRPM8 antagonists with antiallodynic activity” (Scientific Reports, 2020):
“Also recorded” adds a separate entry of the source.

Legend:
rat TRPM8 channel = biological target: T1, rat TRPM8 channel (Rattus norvegicus, UniProt Q8R455); test: Ca2+ microfluorometry, menthol-induced Ca2+ influx in HEK293 cells expressing rat TRPM8; assay type: cell-based; settings: 100 µM menthol, HEK-rTRPM8; for % Blockade 5 µM: 5 µM compound; for % Blockade 50 µM: 50 µM compound; for IC50: Ca2+ microfluorometry
T1 construct: expressed in transfected cells; host or cells: HEK293 (stably transfected)
Experimental: The ability to inhibit menthol-induced Ca^2+ intracellular influx into the cytosol on HEK293 cells heterologously expressing the rat TRPM8 channel was measured and compared to that of AMTB, a well-known TRPM8 antagonist. Representative recordings of fluorescence obtained in microfluorometry experiments for selected compounds are in Supplementary Fig. S3.
Human embryonic kidney cell line (HEK) stably transfected with rTRPM8 or h-TRPV1 were used as previously described. Briefly, cells were seeded in 96-well plates at a cell density of 30,000 cells 2 days before treatment. Buffer used was HBBS (in mM): 138 NaCl, 5.33 KCl, 1.26 CaCl2, 0.5 MgCl-6H2O, 0.4 MgSO4-7H2O, 4 NaHCO3 0.44 KH2PO4, 0.3 Na2HPO4, pH 7.4. The day of treatment the medium was replaced with 100 µL of the dye loading solution Fluo-4 NW supplemented with probenecid 2.5 mM. After incubation, plates were transferred to a fluorescence plate reader (Polastar BMG). In the experimental protocol, the baseline fluorescence was recorded ([…]) for 3 cycles. After, vehicle, compound at different concentrations and the corresponding antagonist, 10 µM AMTB for TRPM8 or 10 µM Ruthenium Red for TRPV1 were added to the well. Fluorescence intensity was recorded during 7 cycles more. Finally, the agonist 100 µM menthol for TRPM8 or 1 µM capsaicin for TRPV1 was added and fluorescence intensity was recorded during 10 cycles more.
The degree of inhibition of TRPM8 channel gating was calculated by comparison to calcium increase signal elicited by test substances and menthol at 100 µM. Decrease of menthol signal was expressed as percentage of inhibition (%). All data are expressed as mean ± standard deviation (SD). Each condition was assessed by triplicate (n = 3) in 3 independent experiments (N = 3). Z-factor was calculated in each assay using the following equation: […]. In all the experiments Z-factor was ≥ 0.5. To calculate IC50, normalized responses (%) versus log [µM] were adjusted to a non-linear fit with variable slope, a four-parameter dose–response curve following curve Y = 100/(1 + 10^((Log IC50-X)*HillSlope)) where […].

[1] = tested on: oxaliplatin-induced cold allodynia; test: Oxaliplatin-induced cold allodynia in mice (acetone test); assay type: in vivo; settings: for Cold allodynia (cold-induced paw licking, acetone test): oxaliplatin-treated male mice
Source text: Several chemotherapeutic agents in first clinical line induce peripheral neuropathies (known as CIPN), affecting million patients worldwide and limiting the dose administered to them, as well as the quality of life of many survivors. In oxaliplatin CIPN, the increased sensitivity to cold has been correlated to an augmented expression of TRPM8 channels, among others[4]–[6],[57]. In good correlation, there are recent experimental evidences describing that TRPM8 antagonists are able to decrease oxaliplatin-induced allodynia and cold hypersensitivity[34],[58]. According to these discoveries, we decided to explore the effects of β-lactam 24a in an in vivo model of oxaliplatin CIPN, using acetone assay for monitoring cold allodynia. In male mice, the injection of oxaliplatin on days 1, 3 and 5 at a 6 mg/kg dose produces peripheral cold allodynia.
Figure 4 Effects of compound 24a on the oxaliplatin-induced cold allodynia (acetone test). Male mice were treated with oxaliplatin (6 mg/Kg, ip) or vehicle on days 1, 3 and 5. Then, compound 24a (1 µg/ipl, A or 3 µg/ipl, B) was administered to the oxaliplatin treated animals, and the time-course of cold allodynia was measured. Data are given ± SME (n = 5). **P < 0.05; ***P < 0.001; ****P < 0.0001.
Male C57-mice (≈30 g) (Harlam, Holland) were used for the study. All experiments were approved by the Institutional Animal and Ethical Committee of the Universidad Miguel Hernandez where experiments were conducted and they were in accordance with the guidelines of the Economic European Community and the Committee for Research and Ethical Issues of the International Association for the Study of Pain. All parts of the study concerning animal care were performed under the control of veterinarians.
As previously described, oxaliplatin (Tocris) was dissolved in water with gentle warming and was […] injected on days 1, 3 and 5 at a 6 mg/kg dose. The day 7 after administration, experiments were performed. Together with Oxaliplatin injection, saline and a 5% Mannitol solution were intraperitoneally injected to prevent kidney damage and dehydration. The compound 24a stock was prepared in DMSO (Sigma-Aldrich) and diluted in saline for injections. Compound at different doses (1 to 3 μg) was injected into the plantar surface (25 μL) of the right hind paw of mice. Cold chemical thermal sensitivity was assessed using acetone drop method. Mice were placed in a metal mesh cage and allowed to habituate for approximately 30 min in order to acclimatize them. […] Cold chemical sensitive reaction with respect to paw licking was recorded as a positive response (nociceptive pain response). The responses were measured for 20-s with a digital stopwatch. For each measurement, the paw was sampled twice and the mean was calculated. […]

[2] = tested on: MDA-MB-231 (breast adenocarcinoma); test: SRB cytotoxicity assay, MDA-MB-231; assay type: cell-based; settings: at 10 µg/mL

T1 sequence (Q8R455 whole entry): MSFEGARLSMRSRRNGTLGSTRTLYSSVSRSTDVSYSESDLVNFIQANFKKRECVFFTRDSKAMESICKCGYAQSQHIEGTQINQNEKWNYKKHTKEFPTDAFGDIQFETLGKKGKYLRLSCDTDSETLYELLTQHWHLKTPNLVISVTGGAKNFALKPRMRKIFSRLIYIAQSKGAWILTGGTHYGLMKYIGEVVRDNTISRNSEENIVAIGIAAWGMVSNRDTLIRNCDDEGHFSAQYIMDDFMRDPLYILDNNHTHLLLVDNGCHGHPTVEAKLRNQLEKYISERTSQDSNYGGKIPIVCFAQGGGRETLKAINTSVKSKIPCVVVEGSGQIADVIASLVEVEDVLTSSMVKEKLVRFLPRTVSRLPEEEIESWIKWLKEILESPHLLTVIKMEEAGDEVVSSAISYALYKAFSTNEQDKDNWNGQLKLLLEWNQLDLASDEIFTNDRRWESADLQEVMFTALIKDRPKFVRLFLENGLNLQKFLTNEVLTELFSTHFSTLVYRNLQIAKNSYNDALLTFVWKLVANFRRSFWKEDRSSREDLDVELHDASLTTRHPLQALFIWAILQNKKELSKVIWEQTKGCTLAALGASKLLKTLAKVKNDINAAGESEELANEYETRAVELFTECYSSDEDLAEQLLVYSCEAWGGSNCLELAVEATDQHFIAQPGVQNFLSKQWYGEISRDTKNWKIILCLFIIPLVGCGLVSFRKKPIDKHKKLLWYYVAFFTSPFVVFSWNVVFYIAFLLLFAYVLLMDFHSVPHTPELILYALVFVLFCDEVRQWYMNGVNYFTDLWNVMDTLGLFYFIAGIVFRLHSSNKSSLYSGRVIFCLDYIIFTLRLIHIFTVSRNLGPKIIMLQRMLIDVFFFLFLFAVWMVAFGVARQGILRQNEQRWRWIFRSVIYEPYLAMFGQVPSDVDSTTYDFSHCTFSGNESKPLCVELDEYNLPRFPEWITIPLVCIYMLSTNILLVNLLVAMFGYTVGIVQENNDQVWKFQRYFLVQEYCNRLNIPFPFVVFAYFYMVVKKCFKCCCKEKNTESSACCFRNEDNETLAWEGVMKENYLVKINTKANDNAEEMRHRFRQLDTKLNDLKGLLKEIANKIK

Row | Compound | % Blockade 5 µM (rat TRPM8 channel) [%] | % Blockade 50 µM (rat TRPM8 channel) [%] | IC50 (rat TRPM8 channel) [nM] | Cold allodynia (cold-induced paw licking, acetone test) ([1]; 1 μg intraplantar) | Cold allodynia (cold-induced paw licking, acetone test) ([1]; 3 µg intraplantar) | Time of maximum antiallodynic activity ([1]; intraplantar, after administration) [min] | Antiallodynic effect in oxaliplatin-induced peripheral neuropathy ([1]; mice, dose not stated) | Cytotoxic activity against MDA-MB-231 [2]
1 | C[C@@H]1C(=O)N(C[C@H](Cc2ccccc2)NC(=O)OCc2ccccc2)[C@]1(Cc1ccccc1)C(=O)OCc1ccccc1 [Compound 24a, 4S-Benzyl-4-benzyloxycarbonyl-3S-methyl-1-[(2′S-benzyloxycarbonylamino-3′-phenyl)prop-1′-yl]-2-oxoazetidine] | 65.4 ± 6.4 | 110.7 ± 11.7 | 2400 ± 1200 | attenuates the cold-induced paw licking in a significant manner | clearly increased at 15 min, and firmly maintained up to 60 min | 30 to 60 | significantly reduced cold allodynia; also recorded: significant antiallodynic effects | no activity
2 | C[C@@H]1C(=O)N(C[C@@H](Cc2ccccc2)NC(=O)OCc2ccccc2)[C@]1(Cc1ccccc1)C(=O)OCc1ccccc1 [Compound 29a, 4S-Benzyl-4-benzyloxycarbonyl-3S-methyl-1-[(2′R-benzyloxycarbonylamino-3′-phenyl)prop-1′-yl]-2-oxoazetidine] | 97.2 ± 4.8 | 100.0 ± 5.0 | 400 | – | – | – | – | –
